Among the data in patent US20240360114A1 (SIRONAX LTD., priority 2021, published 2024) are EC50 values, retold here.

One assay deals with HT-1080 cells. Description: HT-1080 cell viability assay (ferroptosis induced by RSL3, Cell Titer-Glo). The conditions noted are these: Homo sapiens, HT-1080, 20 h, ferroptosis inducer RSL3, 20 hours, ferroptosis inhibitory activity, Table 2. Type of assay: cell-based. The method, boiled down: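 Cells seeded overnight, then co-treated with RSL3 and compound (3-fold, 10-point dilution, top 1.1 μM) for 20 hours. Viability by CellTiter-Glo luminescence, normalized to untreated controls; EC50 from sigmoidal non-linear regression.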
On the technique in general: ATP-based viability assays read luminescence as a measure of living cells.
Usually EC50 stands for the concentration that produces a half-maximal response. A higher EC50 goes with a need for much substance. `CC(C)C1CCN(c2ncc(NC3C4CC5CC3CC(O)(C5)C4)cn2)CC1` (centres unmarked) [Compound 424, 4-((2-(4-isopropylpiperidin-1-yl)pyrimidin-5-yl)amino) adamantan-1-ol] yielded an EC50 of 0.1 to 100 nM.

For `CC(C)(C)c1ccc(NC2CCC(CNC(=O)C3CNC(=O)C3)CC2)cc1` (single isomer, unassigned) [Compound 144A, N-((4-((4-(tert-butyl)phenyl)amino)cyclohexyl)methyl)-5-oxopyrrolidine-3-carboxamide], the EC50 lay in the range of 100 to 1000 nM.

Compound `Cc1nc(N2C[C@@H](C)O[C@@H](C)C2)ccc1NC1CC2(CC(N)C2)C1` (some centres unmarked) [Compound 488A, N2-(6-(2,6-dimethylmorpholino)-2-methylpyridin-3-yl)spiro[3.3]heptane-2,6-diamine] returned an EC50 of 0.1 to 100 nM.

Compound `O=C1NC[C@H](C(=O)NC2CCC(Nc3ccc(C4CCCCC4)cc3)CC2)N1` (stereo partly drawn) [Compound 111, (R)—N-(4-((4-cyclohexylphenyl)amino)cyclohexyl)-2-oxoimidazolidine-4-carboxamide] returned an EC50 of 100 to 1000 nM.

Take `NC1CCC(Nc2ccc(F)c(F)c2)CC1` (centres unmarked) [Compound 160, N1-(3,4-difluorophenyl)cyclohexane-1,4-diamine]: the EC50 fell in the range of 1000 to 10000 nM.

As to `CC1(C)CCC(c2ccc(NC3CC(CN)C3)cc2)CC1` (centres unmarked) [Compound 84, N-(3-(aminomethyl)cyclobutyl)-4-(4,4-dimethylcyclohexyl)aniline], the 50% effective concentration (EC50) was in the range of 0.1 to 100 nM.

Take `CC1(C)CCC(c2ccc(NC3CCC(NC(=O)[C@H]4CNC(=O)N4)CC3)cc2)CC1` (some centres unmarked) [Compound 156C]: the EC50 lay within 0.1 to 100 nM.

`CCc1ccc(NC2CCC(N)CC2)cn1` (centres unmarked) [Compound 208, N1-(6-ethylpyridin-3-yl)cyclohexane-1,4-diamine] registered an EC50 of 1000 to 10000 nM.

Compound `NC1CCC(Nc2ccc(CC(F)(F)F)cc2)CC1` (centres unmarked) [Compound 223, N1-(4-(2,2,2-trifluoroethyl)phenyl)cyclohexane-1,4-diamine] displayed an EC50 of 1000 to 10000 nM.

On to `CCCCCc1ccc(NC2CCC(N)CC2)cc1` (centres unmarked) [Compound 136, N1-(4-pentylphenyl)cyclohexane-1,4-diamine], for which the EC50 lay within 0.1 to 100 nM.

In turn, `CC1CN(c2ccc(NC[C@H]3CC[C@H](N)CC3)c(Cl)c2)CC(C)O1` (some centres unmarked) [Compound 483, N-(((1r,4r)-4-aminocyclohexyl)methyl)-2-chloro-4-(2,6-dimethylmorpholino) aniline] came in with an EC50 of 0.1 to 100 nM.

As for `CC1CN(c2ccc(NC[C@H]3CC[C@H](N)CC3)cc2)CC(C)N1CC(F)(F)F` (some centres unmarked) [Compound 467, N-(((1r,4r)-4-aminocyclohexyl)methyl)-4-(3,5-dimethyl-4-(2,2,2-trifluoroethyl)piperazin-1-yl)aniline], the EC50 lay within 0.1 to 100 nM.

Regarding `CC1CN(c2c(F)cc(NC[C@H]3CC[C@H](N)CC3)cc2F)CC(C)O1` (some centres unmarked) [Compound 439, N-(((1r,4r)-4-aminocyclohexyl)methyl)-4-(2,6-dimethylmorpholino)-3,5-difluoroaniline], the EC50 lay within 100 to 1000 nM.

`Cc1nc(N2CCC(N3C[C@@H](C)O[C@@H](C)C3)CC2)ccc1NC1CC2(CC(N)C2)C1` (stereo partly drawn) [Compound 537, N2-(6-(4-((2S,6R)-2,6-dimethylmorpholino)piperidin-1-yl)-2-methylpyridin-3-yl)spiro[3.3]heptane-2,6-diamine] displayed an EC50 of 100 to 1000 nM.

In turn, `NC1CCC(Nc2ccc(N3CCC(C(F)(F)F)CC3)cc2Cl)CC1` (centres unmarked) [Compound 70, N1-(2-chloro-4-(4-(trifluoromethyl)piperidin-1-yl)phenyl)cyclohexane-1,4-diamine] displayed an EC50 of 0.1 to 100 nM.

As to `COC1(C(F)(F)F)CCN(c2ccc(NC[C@H]3CC[C@H](N)CC3)c(C)n2)CC1` [Compound 510, N-(((1r,4r)-4-aminocyclohexyl)methyl)-6-(4-methoxy-4-(trifluoromethyl)piperidin-1-yl)-2-methylpyridin-3-amine], the EC50 lay within 0.1 to 100 nM.

With `CCc1ccc(NC2CCC(N)CC2)cc1C` (centres unmarked) [Compound 304, N1-(4-ethyl-3-methylphenyl)cyclohexane-1,4-diamine], the EC50 lay in the range of 100 to 1000 nM.

For `CC1CN(c2ncc3cc(NC4CC5(CC(N)C5)C4)ccc3n2)CC(C)O1` (centres unmarked) [Compound 571, N^2-(2-(2,6-dimethylmorpholino)quinazolin-6-yl)spiro[3.3]heptane-2,6-diamine], the EC50 lay within 0.1 to 100 nM.

`Cc1c(NC[C@H]2CC[C@H](N)CC2)ccc(N2CC(C)OC(C)C2)c1C` (some centres unmarked) [Compound 452, N-(((1r,4r)-4-aminocyclohexyl)methyl)-4-(2,6-dimethylmorpholino)-2,3-dimethylaniline] returned an EC50 of 0.1 to 100 nM.

In turn, `CC1(N)CCC(Nc2ccc3c(c2)CCC3)CC1` (centres unmarked) [Compound 99, N1-(2,3-dihydro-1H-inden-5-yl)-4-methylcyclohexane-1,4-diamine] registered a half-maximal effective concentration (EC50) of 0.1 to 100 nM.

`CC(C)(C)c1ccc(NCCOCCO)cc1` [Compound 179, 2-(2-((4-(tert-butyl)phenyl)amino)ethoxy) ethan-1-ol] yielded an EC50 of 1000 to 10000 nM.

As for `NC1CCC(Nc2ccc3cc(N4CCC(C(F)(F)F)CC4)cnc3c2)CC1` (centres unmarked) [Compound 572, N1-(3-(4-(trifluoromethyl)piperidin-1-yl)quinolin-7-yl)cyclohexane-1,4-diamine], the EC50 lay within 0.1 to 100 nM.

For the compound `CC1CN(c2ccc(NC[C@H]3CC[C@H](N)CC3)c(C(F)(F)F)c2)CC(C)O1` (some centres unmarked) [Compound 466, N-(((1r,4r)-4-aminocyclohexyl)methyl)-4-(2,6-dimethylmorpholino)-2-(trifluoromethyl)aniline], the EC50 was 100 to 1000 nM.

In the case of `CC(C)C1CCN(c2ncc(NC[C@H]3CC[C@H](C(N)=O)CC3)cn2)CC1` [Compound 423, (1r,4r)-4-(((2-(4-isopropylpiperidin-1-yl)pyrimidin-5-yl)amino)methyl)cyclohexane-1-carboxamide], the EC50 was in the range of 0.1 to 100 nM.

Consider `CN(C)C1CCC(Nc2ccc(C3CCC(C)(C)CC3)cc2)CC1` (single isomer, unassigned) [Compound 91A, N1-(4-(4,4-dimethylcyclohexyl)phenyl)-N4,N4-dimethylcyclohexane-1,4-diamine], for which the EC50 fell in the range of 0.1 to 100 nM.

In turn, `CC1(C)CCC(c2ccc(NC3CCC(N)C3)cc2)CC1` (single isomer, unassigned) [Compound 121A, N1-(4-(4,4-dimethylcyclohexyl)phenyl)cyclopentane-1,3-diamine] displayed an EC50 of 0.1 to 100 nM.

Take `Cc1nc(N2CC(C)OC(C)C2)ccc1NCCCC1CCC(N)CC1` (centres unmarked) [Compound 526, N-(3-((1r,4s)-4-aminocyclohexyl)propyl)-6-(2,6-dimethylmorpholino)-2-methyl pyridin-3-amine]: the 50% effective concentration (EC50) lay in the range of 0.1 to 100 nM.

The compound `CC(C)(C)c1ccc(NC2CCC(CNCCO)CC2)cc1` (centres unmarked) [Compound 322, 2-(((4-((4-(tert-butyl)phenyl)amino)cyclohexyl)methyl)amino)ethan-1-ol] gave an EC50 of 0.1 to 100 nM.

As for `CC1CN(c2ccc(NC[C@H]3CC[C@H](N)CC3)cc2)CC(C)N1C` (some centres unmarked) [Compound 525, N-(((1r,4r)-4-aminocyclohexyl)methyl)-4-(3,4,5-trimethylpiperazin-1-yl)aniline], the EC50 was in the range of 100 to 1000 nM.

Compound `CC1CC(c2ccc(NC3CCC(N)CC3)cc2)CC(C)O1` (centres unmarked) [Compound 138, N1-(4-(2,6-dimethyltetrahydro-2H-pyran-4-yl)phenyl)cyclohexane-1,4-diamine] registered an EC50 of 100 to 1000 nM.

Take `CC(C)(C)c1ccc(NC2CCC(N)CC2)cc1Cl` (centres unmarked) [Compound 201, N1-(4-(tert-butyl)-3-chlorophenyl)cyclohexane-1,4-diamine]: the EC50 was in the range of 100 to 1000 nM.

As for `CC1CN(c2ccc(NC3CC4(CC(N)C4)C3)c(F)c2)CC(C)O1` (centres unmarked) [Compound 461, N2-(4-(2,6-dimethylmorpholino)-2-fluorophenyl)spiro[3.3]heptane-2,6-diamine], the 50% effective concentration (EC50) is 0.1 to 100 nM.

The same assay, now with this note: Homo sapiens, HT-1080, 20 h, ferroptosis inducer RSL3, 20 hours, ferroptosis inhibitory activity, Table 3.
Compound `CN(CC(F)(F)F)c1ccc2cc(NC3CC(N)C3)ccc2c1` (centres unmarked) [Compound 654] yielded an EC50 of 0.1 to 100 nM.

For `Cc1nc(N2CC(C)OC(C)C2)ccc1NC1CCC2(CC1)CC(N)C2` (centres unmarked) [Compound 624, N^7-(6-(2,6-dimethylmorpholino)-2-methylpyridin-3-yl)spiro[3.5]nonane-2,7-diamine], the EC50 was in the range of 0.1 to 100 nM.

Compound `CC1CN(c2ncc(NC3CC4(CC(N)C4)C3)cc2F)CC(C)N1CC(F)(F)F` (centres unmarked) [Compound 580, N^2-(6-(3.5-dimethyl-4-(2,2,2-trifluoroethyl)piperazin-1-yl)-5-fluoropyridin-3-yl)spiro[3.3]hept ane-2,6-diamine] came in with an EC50 of 0.1 to 100 nM.

The compound `CC1CN(c2ccc(NC3CC4(CC(N)C4)C3)c(F)n2)CC(C)N1CC(F)(F)F` (centres unmarked) [Compound 579, N2-(6-(3,5-dimethyl-4-(2,2,2-trifluoroethyl)piperazin-1-yl)-2-fluoropyridin-3-yl)spiro[3.3]heptane-2,6-diamine] showed an EC50 of 0.1 to 100 nM.

As for `CCC1CN(c2ccc(NC3C4CC5CC3CC(C(N)=O)(C5)C4)c(C)n2)CCO1` (centres unmarked) [Compound 590], the EC50 was in the range of 100 to 1000 nM.

Turning to `CC1CN(c2ccc3cc(NC4CC(N)C4)ccc3c2)CCO1` (centres unmarked) [Compound 629, N^1-(6-(2-methylmorpholino)naphthalen-2-yl)cyclobutane-1,3-diamine], the EC50 was in the range of 0.1 to 100 nM.

Take `Cc1nc(N2C[C@@H](C)O[C@@H](C)C2)ccc1NCCC[C@H]1C[C@@H](N)C1` [Compound 578, N-(3-((1s,3R)-3-aminocyclobutyl)propyl)-6-((2S,6R)-2,6-dimethylmorpholino)-2-methylpyridin-3-amine]: the EC50 fell in the range of 0.1 to 100 nM.

Staying with this assay, now noted: ferroptosis inducer RSL3, 20 hours, ferroptosis inhibitory activity, Table 2.
With `CC(C)(C)c1ccc(NCC2CC(N)C2)cc1` (single isomer, unassigned) [Compound 335A, N-((3-aminocyclobutyl)methyl)-4-(tert-butyl)aniline], the EC50 was 100 to 1000 nM.

Compound `Cc1cc(N2CC(C)OC(C)C2)ccc1NCC1CCC(N)CC1` (centres unmarked) [Compound 407, N-(((1r,4r)-4-aminocyclohexyl)methyl)-4-(2,6-dimethylmorpholino)-2-methylaniline] displayed an EC50 of 0.1 to 100 nM.
